From US20120053115A1, “Lantibiotic Carboxyamide Derivatives With Enhanced Antibacterial Activity” (Sentinella Pharmaceuticals, Inc., priority 2008, published 2012)

Experiments:
[1] = tested on: E. faecalisVanA (code 560); conditions: E. faecalis VanA code 560; 0.02% albumine bovine serum; read after 24 h
Protocol: (§1) MICs were performed using the broth microdilution methodology following the NCCLS procedure (NCCLS Document M7-A4 Vol. 17 No. 2 January 1997) in presence of 0.02% albumine bovine serum with inocula of approximately 5×10^5 cfu/mL. The media employed included cation-adjusted Mueller-Hinton (MH) broth (Difco Laboratories, Detroit, Mich., USA) supplemented or not with 30% (v/v) bovine serum. Tests were read after 24 h incubation at 25-37° C.

[2] = tested on: C. albicans ATCC 90028 (code 145); conditions: 0.02% albumine bovine serum, read after 24 h
Protocol: as §1

[3] = tested on: Staphylococcus aureus VISA (code 3798); conditions: S. aureus VISA code 3798; 0.02% albumine bovine serum; read after 24 h
Protocol: as §1

[4] = tested on: E. faecium VanA (code 569); conditions: 0.02% albumine bovine serum, read after 24 h
Protocol: as §1

[5] = tested on: S. haemolyticus Met-R (code 1729); conditions: 0.02% albumine bovine serum, read after 24 h
Protocol: as §1

[6] = tested on: E. faecalisVanS (code 559); conditions: E. faecalis VanS code 559; 0.02% albumine bovine serum; read after 24 h
Protocol: as §1

S. pyogenes (code 49) = conditions: 0.02% albumine bovine serum, read after 24 h
Protocol: as §1

[7] = tested on: S. haemolyticus Met-S (code 1730); conditions: 0.02% albumine bovine serum, read after 24 h
Protocol: as §1

[8] = tested on: Staphylococcus aureus VISA Met-R (code 3797); conditions: S. aureus VISA Met-R code 3797; 0.02% albumine bovine serum; read after 24 h
Protocol: as §1

[9] = tested on: Escherichia coli (code 47); conditions: 0.02% albumine bovine serum, read after 24 h
Protocol: as §1

[10] = tested on: Enterococcus faecium VanS (code 568); conditions: E. faecium VanS code 568; 0.02% albumine bovine serum; read after 24 h
Protocol: as §1

[11] = tested on: S. epidermidis ATCC12228 (code 147); conditions: 0.02% albumine bovine serum, read after 24 h
Protocol: as §1

C=C1NC(=O)[C@H](C(C)C)NC(=O)[C@H](NC(=O)/C(=C/C)NC(=O)[C@@H](N)[C@@H](C)CC)CSC[C@@H](C(=O)N[C@H]2C(=O)N3CCC[C@H]3C(=O)NCC(=O)N[C@H](C(=O)N[C@H](C(=O)N[C@@H]3CSC[C@@H]4NC(=O)CNC(=O)[C@@H](CSC[C@@H]5NC(=O)[C@H](Cc6c[nH]cn6)NC(=O)[C@@H](CSC[C@@H](C(=O)NCCCCN(C)C)NC5=O)NC4=O)NC(=O)CNC(=O)CNC(=O)CNC(=O)[C@H](CCC(=O)NCCCCN(C)C)NC3=O)[C@@H](C)O)CS[C@H]2C)NC(=O)[C@H](Cc2c[nH]c3ccccc23)NC1=O [Compound 12]
Minimal Inhibitory Concentrations [1]: 4 µg/mL
Minimal Inhibitory Concentrations [2]: 64 µg/mL
Minimal Inhibitory Concentrations [3]: 1 µg/mL
Minimal Inhibitory Concentrations [4]: 1 µg/mL
Minimal Inhibitory Concentrations [5]: 1 µg/mL
Minimal Inhibitory Concentrations [6]: 8 µg/mL
Minimal Inhibitory Concentrations (S. pyogenes (code 49)): 0.50 µg/mL
Minimal Inhibitory Concentrations [7]: <0.125 µg/mL
Minimal Inhibitory Concentrations [8]: 2 µg/mL
Minimal Inhibitory Concentrations [9]: >128 µg/mL
Minimal Inhibitory Concentrations [10]: 2 µg/mL
Minimal Inhibitory Concentrations [11]: 1 µg/mL
